{
  "source": "patent US8802104B2",
  "about": "“Parathyroid hormone receptor activation and stem and progenitor cell expansion” (The General Hospital Corporation, priority 2002, dated 2014)",
  "key": {"[1]": {"tested_on": "C57Bl/6 stroma and hematopoietic cells (LTC-IC)", "assay": "LTC-IC assay on wild-type stroma, in vitro treatment with PTH", "assay_type": "cell-based, mouse", "protocol": "Murine bone marrow stromal cells from confluent cultures were irradiated (15Gy) and plated at a concentration of 20,000 cells/well in 96-well plates in long-term culture medium. Cells were then seeded into the plates in two-fold serial limiting dilutions and cultured at 33° C./5% CO2 in a humidified atmosphere. Cultures were maintained for 5 weeks, changing half of the medium in the wells weekly. Following this, the medium was replaced with methylcellulose containing medium supplemented with recombinant cytokines as described above, then scored for colony growth ten days following the addition of the medium.\nLTC-IC assays were performed using wild-type stroma and hematopoietic cells. […] After fixation in 10% Neutral Formalin Buffer for 30 minutes at room temperature, alkaline phosphatase activity was determined histochemically by incubation for 45 minutes at RT with a mixture of 0.1 mg/ml naphthol AS-MX phosphate (Sigma), 0.5% N,N-dimethylformamide, 0.6 mg/ml red violet LB salt (Sigma) in 0.1 M Tris-HCl (pH 8.5). Alkaline phosphatase positive cells were counted at day 10 of culture, when the cultures were subconfluent and individual cells could be identified. […]"}, "[2]": {"tested_on": "lin-Sca-1+c-Kit+ cells in bone marrow", "assay": "In vivo PTH administration: flow cytometry of lin-Sca-1+c-Kit+ cells", "set-up": "species or system C57Bl/6 mice", "conditions": "four weeks PTH; P<0.01, FIG. 5d", "text": "Bone marrow mononuclear cells were isolated as described above. Single cell suspensions were then stained with biotinylated lineage antibodies (CD3, CD4, CD8, Ter119, Gr-1, Mac-1 and B220) and phycoerythrin conjugated anti-Sca-1 and anti-c-Kit (Pharmingen, San Diego, Calif.). Cells were then labeled with a secondary fluorescein isothiocyanante conjugated streptavidin and analyzed on a FACScalibur cytometer (Becton Dickinson and Co., Franklin Lakes, N.J.) using Cell Quest software. […]\nFor PTH administration, 6-8 week old wild type C57/B male mice were used. […] At the end of the treatment period, ionized serum calcium was measured by the Ciba/Corning 634 Ca^++/pH analyzer, and, after euthanasia, the hind limbs and forelimbs were dissected and utilized for cytologic and histologic analysis.\nAs treatment of stromal cells with PTH led to an increase in the ability of the stromal cell population to support hematopoietic stem cells, it was investigated whether these effects could be recapitulated in vivo. Wild-type C57Bl/6 mice were injected daily with PTH using an intermittent dosing schedule known to increase osteoblasts, and the frequencies of LTC-ICs in the bone marrow were measured. […]"}},
  "note": "“Also recorded” adds a separate entry of the source.",
  "data": [
    {"substance": "Rat PTH (1-34)", "values": [
      {"measurement": "ability of stroma to support LTC-ICs", "setting": "[1]; PTH 10^-7 M present during expansion of the stromal population, P=0.004, FIG. 5a", "result": "enhanced the ability of the stroma to support LTC-ICs; also recorded: increasing LTC-IC"},
      {"measurement": "LTC-IC support", "setting": "[1]; stromal cells expanded in the absence of PTH, or PTH added at the same time as the hematopoietic cells", "result": "the effect was not seen"},
      {"measurement": "lin-Sca-1+c-Kit+ cells compared with mock treated controls", "setting": "[2]", "result": "higher frequency and absolute number"}
    ]}
  ]
}
